Source: PMC7284870, “Antimicrobial Peptides from Rat-Tailed Maggots of the Drone Fly Eristalis tenax Show Potent Activity against Multidrug-Resistant Gram-Negative Bacteria” (Microorganisms, 2020)
Read-outs that look alike come from different tables or passages of the source. No end group written: not given here.

Tests used:
S. aureus ATCC 33592 = format: cell-based, Staphylococcus aureus; conditions: CAMB, 18 h, 37 °C, n = 4
Experimental: (§1) The strains that were used in this study (Table 2 and Table S1) were cultivated at 37 °C in cation-adjusted Mueller–Hinton broth (CAMB) in Erlenmeyer flasks, or on the same medium with agar in Petri dishes. Exceptionally, Mycobacterium smegmatis was cultivated at 37 °C in brain heart infusion (BHI) medium that was supplemented with 1% Tween-80 in Erlenmeyer flasks, or on the same medium lacking detergent but with agar in Petri dishes. Strains listed with Robert Koch Institute (RKI) strain numbers are clinical isolates from the RKI strain collection originating from hospitalized patients in Germany. The remaining strains originated from the Sanofi strain collection and they were originally purchased from the American Type Culture Collection or the German Collection of Microorganisms and Cell Cultures. Meropenem/colistin-resistant strains were maintained, as described above, with the appropriate antibiotic added at levels below the minimal inhibitory concentration (MIC).
(§2) The MIC values were determined in 384-well microtiter plates with an assay volume of 20 µL. Immediately before each assay, the cultures of test organisms (bacteria grown for 18 h, Candida albicans and M. smegmatis grown for 48 h) were diluted with the appropriate medium to a density of 1 × 10^6 cells/mL (C. albicans), 1 × 10^5 cells/mL (M. smegmatis) or 5 × 10^5 cells per mL (other species). […] We transferred 2-µL aliquots from this dilution series to new 384-well microtiter plates while using a CyBio-Well 384-channel automated pipettor (Analytic Jena, Jena, Germany) and added 18 µL of the diluted suspension of each test species using a Viafill reagent dispenser (Integra), thus reducing the final peptide concentration 10-fold to the range 1024–0.03125 µg/mL. […] The growth of M. smegmatis was measured using the BacTiter-Glo luminescence test system (Promega, Madison, WI, USA). The growth of the other species was determined by visual inspection of the microtiter plate and turbidimetry based on the optical density at 600 nm (OD600). The MIC was defined as the peptide concentration at which no bacterial growth was observed. We supplemented the test medium with either 150 mM NaCl or 1.25 mM CaCl2 to represent monovalent and divalent cations to simulate physiological conditions.

[1] = system: Micrococus luteus DSM 20030; format: cell-based, Micrococcus luteus; conditions: CAMB, 18 h, 37 °C, n = 4
Experimental: as §1
(§3) The MIC values were determined in 384-well microtiter plates with an assay volume of 20 µL. […] The growth of M. smegmatis was measured using the BacTiter-Glo luminescence test system (Promega, Madison, WI, USA). The growth of the other species was determined by visual inspection of the microtiter plate and turbidimetry based on the optical density at 600 nm (OD600). […]

E. coli ATCC 25922 = system: E. coli ATCC 25922
Experimental: as §1
The MIC values were determined in 384-well microtiter plates with an assay volume of 20 µL. Immediately before each assay, the cultures of test organisms (bacteria grown for 18 h, Candida albicans and M. smegmatis grown for 48 h) were diluted with the appropriate medium to a density of 1 × 10^6 cells/mL (C. albicans), 1 × 10^5 cells/mL (M. smegmatis) or 5 × 10^5 cells per mL (other species). The peptides were dissolved in sterile water at a concentration of 10.24 mg/mL and a 1:2 dilution series was prepared in a 384-well microtiter plate to achieve the concentration range 10,240–0.3125 µg/mL in a volume of 50 µL. We transferred 2-µL aliquots from this dilution series to new 384-well microtiter plates while using a CyBio-Well 384-channel automated pipettor (Analytic Jena, Jena, Germany) and added 18 µL of the diluted suspension of each test species using a Viafill reagent dispenser (Integra), thus reducing the final peptide concentration 10-fold to the range 1024–0.03125 µg/mL. The cells were incubated at 37 °C and 85% relative humidity, shaking at 180 rpm for 48 h (M. smegmatis), 24 h (C. albicans) or 18 h (other species). The growth of M. smegmatis was measured using the BacTiter-Glo luminescence test system (Promega, Madison, WI, USA). The growth of the other species was determined by visual inspection of the microtiter plate and turbidimetry based on the optical density at 600 nm (OD600). […] We supplemented the test medium with either 150 mM NaCl or 1.25 mM CaCl2 to represent monovalent and divalent cations to simulate physiological conditions.

Canida albicans FH2173 = format: cell-based, Candida albicans; conditions: CAMB, 24 h, 37 °C, n = 4
Experimental: as §1, §2

[2] = system: Acinetobacter baumannii ATCC 19606; format: cell-based; conditions: CAMB, 18 h, 37 °C, n = 4
Experimental: as §1, §2

[3] = system: Enterococcus faecium DSM 17050; format: cell-based; conditions: CAMB, 18 h, 37 °C, n = 4
Experimental: as §1, §2

[4] = system: Klebsiella pneumoniae DSM 30104; format: cell-based; conditions: CAMB, 18 h, 37 °C, n = 4
Experimental: as §1, §2

[5] = system: Listeria monocytogenes DSM 20600; format: cell-based; conditions: CAMB, 18 h, 37 °C, n = 4
Experimental: as §1, §2

[6] = system: Mycobacterium smegmatis ATCC 607; format: cell-based; conditions: BHI, 48 h, 37 °C, BacTiter-Glo, n = 4
Experimental: as §1, §2

[7] = system: Proteus mirabilis DSM 4479; format: cell-based; conditions: CAMB, 18 h, 37 °C, n = 4
Experimental: as §1, §2

[8] = system: Pseudomonas aeruginosa ATCC 27853; format: cell-based; conditions: CAMB, 18 h, 37 °C, n = 4
Experimental: as §1, §2

[9] = system: Staphylococcus aureus ATCC 25923; format: cell-based; conditions: CAMB, 18 h, 37 °C, n = 4
Experimental: as §1, §2

[10] = system: Staphylococcus epidermidis ATCC 35984; format: cell-based; conditions: CAMB, 18 h, 37 °C, n = 4
Experimental: as §1, §2

reference strains = assay: MIC, several reference strains; format: cell-based; conditions: reference strains of Table 2
Experimental: as §1, §3

Sequence: AACSLGSLLNVGCNSCACAAHCLATRGKNGACNSQRRCVCNK (disulfide (positions not given here)) [EtDef1]
- MIC (S. aureus ATCC 33592): >128 µg/mL
- MIC [1]: >128 µg/mL
- MIC (E. coli ATCC 25922; CAMB + A000160918 [4 µg/mL]): >256 µg/mL
- MIC (E. coli ATCC 25922; CAMB + A000161246 [4 µg/mL]): >256 µg/mL
- MIC (E. coli ATCC 25922; CAMB + A000173031A [4 µg/mL]): >256 µg/mL
- MIC (E. coli ATCC 25922; CAMB + A000173033A [4 µg/mL]): >256 µg/mL
- MIC (E. coli ATCC 25922; CAMB + A000173039A [0.25 µg/mL]): >256 µg/mL
- MIC (E. coli ATCC 25922; CAMB + A000173380A [4 µg/mL]): >256 µg/mL
- MIC (E. coli ATCC 25922; CAMB + A000498432A [4 µg/mL]): >256 µg/mL
- MIC (E. coli ATCC 25922; CAMB + A000499933A [0.0625 µg/mL]): >256 µg/mL
- MIC (E. coli ATCC 25922; CAMB + A000500059A [0.0625 µg/mL]): >256 µg/mL
- MIC (E. coli ATCC 25922; CAMB + A000500146A [0.0625 µg/mL]): 128 µg/mL
- MIC (E. coli ATCC 25922; CAMB + A000501181A [4 µg/mL]): >256 µg/mL
- MIC (E. coli ATCC 25922; CAMB + Colistin E1 [0.016 µg/mL]): 128 µg/mL
- MIC (E. coli ATCC 25922; CAMB + Colistin E2 [0.016 µg/mL]): 4 µg/mL
- MIC (E. coli ATCC 25922; CAMB + PMB [0.016 µg/mL]): 1 µg/mL
- MIC (E. coli ATCC 25922; CAMB + PMBN [4 µg/mL]): >256 µg/mL
- MIC (E. coli ATCC 25922; CAMB, 18 h, 37 °C, n = 4): >128 µg/mL
- MIC (E. coli ATCC 25922; Table 6, CAMB): >256 µg/mL
- MIC (Canida albicans FH2173): >128 µg/mL
- MIC [2]: >128 µg/mL
- MIC [3]: >128 µg/mL
- MIC [4]: >128 µg/mL
- MIC [5]: >128 µg/mL
- MIC [6]: >128 µg/mL
- MIC [7]: >128 µg/mL
- MIC [8]: >128 µg/mL
- MIC [9]: >128 µg/mL
- MIC [10]: >128 µg/mL
- activity against the test strains (reference strains): inactive
